Laboratory results from patent publication US9783510B2, “Small molecule mediated transcriptional induction of E-cadherin” (Vanderbilt University, priority 2014, dated 2017).

Experiments:
[1] = tested on: E-cadherin expression in SW620inv colon cancer cells; experiment: Quantitative in-cell Western (ICW), E-cadherin restoration in SW620inv cells; type: cell-based; conditions: 24 hours, 3 biological replicates
Method: SW620inv cells were used for ICW analysis as described (Stoops, S. L., et al. (2011) ACS Chemical Biology 6, 452-465).
SW620 cells (ATCC p92) were grown in RPMI+10% FBS+P/S to sub-confluence. The cells were washed with PBS, trypsinized, and re-suspended in serum-free RPMI at a concentration of one million cells/mL. The cells were then added to the upper chamber of 24 mm transwell (Costar#3428) that had been coated with 400 μL of 2.5 mg/mL matrigel (BD Biosciences). One milliliter of 10% FBS+P/S was added to the lower chamber. The cells were incubated at 37° C. for 72 hours in order to allow the cells to invade. Four biological replicate transwells were prepared for invasion. […] These invasive cells were then analyzed by western blot, matrigel invasion assay, and immunofluorescence for E-cadherin levels with and without TSA treatments. […]
Compounds of the present invention restore E-cadherin protein to the surface of selected aggressive colon and lung cancer cells. […] The kinetics of altered E-cadherin expression in SW620inv cells was determined by quantitative Western blot, using the Odyssey imaging system. […]
Referring to FIG. 2B and FIG. 2C, concentration dependent changes in E-cadherin expression following 24 hours of Compound 13 (259Y) treatment as determined by quantitative in cell Western (ICW) are shown.

[2] = tested on: E-cadherin protein in SW620inv cells; experiment: Quantitative Western blot of E-cadherin protein, SW620inv time course; type: cell-based; conditions: maintained level, 12, 18 and 24 hour time-points
[3] = tested on: human E-cadherin promoter; experiment: E-cadherin promoter luciferase reporter assay in SW620inv cells; type: cell-based; conditions: 10 μM, 24 hours
Method: The 1.4 kbp E-cadherin promoter plasmid (E1) and deletion plasmids E2-E8 were a gift from Dr. Eric Fearon at The University of Michigan (Liu, Y. N., et al. (2005) Onocogene 24, 8277-8290). All plasmid constructs were sequenced at the Vanderbilt University Sequencing Core to confirm the E-cadherin promoter fragments using the PCR primers listed in Table I and herein below. Luciferase assays were performed as previously described (Freeman, T. J., et al. (2012) Gastroenterology 142, 562-572).
Compound 13 (259Y) induces>20-fold increases in reporter activation driven by the 1130 bp promoter region in an assay in which an exogenous firefly luciferase gene is driven by defined regions of the human E-cadherin promoter. This region includes consensus binding sequences for several known transcription factors, including AML1, P300, Snail and SP1 (Liu, Y. N., et al. (2005) Oncogene 24, 8277-8290). […]
Referring to FIG. 5, a diagram of the 8 E-cadherin promoter reporter plasmids (full length and truncations) utilized to determine promoter elements critical for promoter activity is shown. […] Fold change is Log2^−ΔΔCp of the normalized fluorescence signal relative to the mean of the DMSO treated group. Statistical significance was calculated using a two-way ANOVA (Holm-Sidak method): ****=p<0.00005, ***=p<0.0005, **=p<0.005, *=p<0.05. […]

[4] = tested on: HMEC-1 cells; experiment: E-cadherin, VE-cadherin, Vimentin and histone marks in HMEC-1 cells (qPCR, Western blot); type: cell-based, human; conditions: HMEC-1, 10 μM, by 12 and 24 hours after treatment
[5] = tested on: HMEC-1 cells; experiment: WST-1 metabolism (proliferation) assay, HMEC-1 cells; type: cell-based, human; conditions: WST-1, 10 μM, 24 h and 48 h
Method: Proliferation, migration, and tubular formation are essential characteristics of endothelial cells for the generation of new blood vessels. […] The lack of effect on cell proliferation is consistent with the lack of effect of compounds of similar class on the proliferation of SW620 and H520 cells (Stoops, S. L., et al. (2011) ACS Chemical Biology 6, 452-465). A scratch wound healing assay was performed on cultured HMEC-1 cells. Confluent monolayers of HMEC-1 cells were disrupted mechanically by scraping them with a sterile pipette tip. Within the observation period of 24 hours, Compound 13 treatment antagonized HMEC-1 monolayer wound healing (FIG. 12).
Referring to FIG. 11, HMEC-1 cells were treated with DMSO or 10 μM Compound 13 (259Y) using 96 wells plate, WST-1 was added (10 μL per well, incubate 37° C. for one hour, read at 450 nm reference 562 nm) at 24 h and 48 h. The blank control was a well with media but NO CELLS+wst-1. Each data point is a biological replicate that is the average of three technical replicates minus the average of three blank wells.

[6] = Intrinsic clearance in vitro, mouse; type: in vitro ADME
Method: (§1) The potency and efficacy of Compound 13 was evaluated in vivo. For these studies, the pharmacokinetics of Compound 13 were first evaluated in vitro and in vivo (FIG. 14).

[7] = Clearance in human microsomes; type: in vitro ADME
Method: as §1

**Q.** Which EC50 [1] does the source give for O=C(NCCCNC(=O)c1cccnc1O)c1cc(-c2ccccc2)on1 [Compound 13, N-(3-(2-hydroxynicotinamido)propyl)-5-phenylisoxazole-3-carboxamide] here?
**A.** Its EC50 is 2.22 µM.

**Q.** And the “E-cadherin protein levels relative to control vehicle treated cells” value [2]?
**A.** Its value is greater than 10 ×.

**Q.** And the reporter activation ([3]; 1130 bp promoter region)?
**A.** The reporter activation was greater than 20 fold.

**Q.** What about the “reporter activation above control after serial deletion of distal promoter regions” value ([3]; deletion incl. −492 bp to −330 bp) of the same compound?
**A.** Its value is greater than 10 ×.

**Q.** What about the “induced expression of E-cadherin mRNA species” value [4] of the same compound?
**A.** Its value is greater than 5 ×.

**Q.** What about the HMEC-1 cell proliferation [5] of the same compound?
**A.** The HMEC-1 cell proliferation was “no significant effect”.

**Q.** What about the intrinsic clearance [6] of the same compound?
**A.** Its intrinsic clearance is “high”.

**Q.** What about the clearance [7] of the same compound?
**A.** Its clearance is “minimal”.
